Measured values as given in PubChem BioAssay AID2060501 (Molecular Pharmacology Branch, DTP, NCI, 2025).
Several values for one entry are separate records, joined by “and”; a condition that tells them apart may be missing. Equal values may be shown once.

Tested on: 282377-053-R-J1-PDC complex spheroids, viability
Assay: Anticancer human tumor 282377-053-R-J1-PDC patient-derived colon adenocarcinoma cell line growth inhibition [GQUAD]
Details: for viability, T/C: stronger effect = lower value
Description: DNA G-quadruplex Stabilizer Agents in Combinations in Complex Spheroids
A high-throughput screen of multi-cell type tumor spheroids was designed to identify active combinations of DNA G-quadruplex stabilizer agents and targeted small molecules. Complex spheroids include a stromal component modeled by human endothelial cells (HUVEC) and fibroblasts modeled by human mesenchymal stem cells (MSCs). The concentration ranges selected for each drug and investigational agent were based upon clinically achievable concentrations if the clinical Cmax of the agent was known.
Compounds. The drugs and investigational agents: pidnarulex (CX-5461; NSC782164), APTO-253 (NSC789042), BRACO-19 (NSC847499), peposertib (NSC802822), ceralasertib (NSC780249), elimusertib (NSC800525), camonsertib (NSC841442), AZD-1390 (NSC803789), olaparib (NSC753686), talazoparib (NSC767125), ART-558 (NSC835418), sotorasib (NSC818433), MRTX-1133 (NSC836407), SN-38 (NSC673596), topotecan (NSC609699), etoposide (NSC141540), doxorubicin (NSC123127), gemcitabine (NSC613327), 5-fluorouracil (NSC19893), paclitaxel (NSC125973), vemurafenib (NSC761431), panobinostat (NSC761190), R-306465 (JNJ-16241199; NSC773264), adavosertib (NSC754352), TP-3654 (NSC805149), carboplatin (NSC241240), KSQ-4279 (NSC840948), and staurosporine (NSC755774) were obtained from the National Cancer Institute (NCI) Developmental Therapeutics Program Chemical Repository (34). The FDA-approved anticancer drug set is available from the NCI Developmental Therapeutics Program. […] The stock solutions were prepared in dimethyl sulfoxide (DMSO, Sigma-Aldrich, St. Louis, MO, cat. D2650) at 800-fold the tested concentration and stored at -70 degrees C prior to their use. All drugs and investigational agents were tested over a range starting from a high concentration at or near the clinical Cmax and decreasing in half-log increments. If the clinical Cmax for an agent had not been determined, the highest concentration tested was 10 microM.
2.3 Cell Culture. All cells were maintained in an incubator at 37 degrees C and 5% CO2 with 95% humidity. The PDC lines were cultured according to standard operating procedures established by the NCI PDMR. All PDCs were thawed and cultured in Matrigel-coated flasks prepared with a working solution of 1X Ham's F-12 nutrient mix, without supplementation (Invitrogen, cat. 11765054), 100 U/mL penicillin-streptomycin (Invitrogen, cat. 15140122), and 2.5% Matrigel (Corning Inc., cat. 354248) for the first three passages. The 857933-349-R-J2-PDC line was cultured in 6C/Colon 1B media, which includes advanced DMEM/F-12 (Thermo Fisher Scientific, cat. 12634028), 10 mM HEPES (Thermo Fisher Scientific, cat. 15630080), 1X GlutaMAX supplement (Thermo Fisher Scientific, cat. 35050061), 0.1 mg/mL primocin (InvivoGen, cat. ant-pm-2), 10% defined fetal bovine serum, heat inactivated (HyClone Laboratories Inc., cat. SH30070.03HI), 50% L-WRN conditioned media (ATCC, cat. CRL-3276), 1.25 mM N-Acetyl-L-cysteine (Sigma-Aldrich, cat. A9165), 10 mM nicotinamide (Sigma-Aldrich, cat. N0636), 1X B-27 supplement (Thermo Fisher Scientific, cat. 17504044), 1X N-2 supplement (Thermo Fisher Scientific, cat. 17502048), 10 microM Y-27632 dihydrochloride (Tocris Bioscience, cat. 1254), and 50 ng/mL human EGF recombinant protein (Thermo Fisher Scientific, cat. PHG0311). The 485176-168-R4-J1-PDC line was cultured in Panc media, which includes all 6C/Colon 1B media components plus 100 ng/mL human FGF-10 (Thermo Fisher Scientific, cat. 100-26), 500 nM SB-431542 (Selleckchem, cat. S1067), and gastrin (Tocris, cat. 3006).
[…]
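Note: spheroids exposed to compounds for 7 days before readout.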
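Throughout, for viability, T/C: percent of vehicle DMSO control viability with 100% = untreated-like growth.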

`CC(=O)O[C@H]1C(=O)[C@@]2(C)[C@H]([C@H](OC(=O)c3ccccc3)[C@]3(O)C[C@H](OC(=O)[C@H](O)[C@@H](NC(=O)c4ccccc4)c4ccccc4)C(C)=C1C3(C)C)[C@]1(OC(C)=O)CO[C@@H]1C[C@@H]2O` + CN(C)c1ccc(Nc2c3ccc(NC(=O)CCN4CCCC4)cc3nc3cc(NC(=O)CCN4CCCC4)ccc23)cc1 showed an IC50 (curve of first compound, second compound 0.0316 µM) of 42 nM, an IC50 (curve of first compound, second compound 0.1 µM) of 44.7 nM and an IC50 (curve of first compound, second compound 0.316 µM) of 48.8 nM. For the same compound, the IC50 (curve of first compound, second compound 1 µM) was 34.7 nM, the IC50 (curve of first compound, second compound 3.16 µM) was 39.1 nM and the IC50 (curve of first compound, second compound 10 µM) was less than 31.6 nM. It also gave a viability, T/C (second compound 0.0316 µM, first compound 0.0316 µM) of 59.7%, a viability, T/C (second compound 0.0316 µM, first compound 0.1 µM) of 14.9% and a viability, T/C (second compound 0.0316 µM, first compound 0.316 µM) of 18.9%. For the same compound, the viability, T/C (second compound 0.0316 µM, first compound 1 µM) was 18.1%, the viability, T/C (second compound 0.0316 µM, first compound 3.16 µM) was 22% and the viability, T/C (second compound 0.0316 µM, first compound 10 µM) was 25.2%. For the same compound, the viability, T/C (second compound 0.1 µM, first compound 0.0316 µM) was 63.1%, the viability, T/C (second compound 0.1 µM, first compound 0.1 µM) was 15.6% and the viability, T/C (second compound 0.1 µM, first compound 0.316 µM) was 17.4%. For the same compound, the viability, T/C (second compound 0.1 µM, first compound 1 µM) was 17.6%, the viability, T/C (second compound 0.1 µM, first compound 3.16 µM) was 21.3% and the viability, T/C (second compound 0.1 µM, first compound 10 µM) was 25.8%. For the same compound, the viability, T/C (second compound 0.316 µM, first compound 0.0316 µM) was 68%, the viability, T/C (second compound 0.316 µM, first compound 0.1 µM) was 17.1% and the viability, T/C (second compound 0.316 µM, first compound 0.316 µM) was 18.5%. It also gave a viability, T/C (second compound 0.316 µM, first compound 1 µM) of 18.1%, a viability, T/C (second compound 0.316 µM, first compound 3.16 µM) of 19.1% and a viability, T/C (second compound 0.316 µM, first compound 10 µM) of 28.9%. It also gave a viability, T/C (second compound 1 µM, first compound 0.0316 µM) of 52.5%, a viability, T/C (second compound 1 µM, first compound 0.1 µM) of 15.7% and a viability, T/C (second compound 1 µM, first compound 0.316 µM) of 18.1%. The viability, T/C (second compound 1 µM, first compound 1 µM) was 17.4%, the viability, T/C (second compound 1 µM, first compound 3.16 µM) was 26.8% and the viability, T/C (second compound 1 µM, first compound 10 µM) was 25%. The viability, T/C (second compound 3.16 µM, first compound 0.0316 µM) was 56.7%, the viability, T/C (second compound 3.16 µM, first compound 0.1 µM) was 18.4% and the viability, T/C (second compound 3.16 µM, first compound 0.316 µM) was 16.8%. For the same compound, the viability, T/C (second compound 3.16 µM, first compound 1 µM) was 17.2%, the viability, T/C (second compound 3.16 µM, first compound 3.16 µM) was 19.2% and the viability, T/C (second compound 3.16 µM, first compound 10 µM) was 24.7%. The viability, T/C (second compound 10 µM, first compound 0.0316 µM) was 47.2%, the viability, T/C (second compound 10 µM, first compound 0.1 µM) was 14.8% and the viability, T/C (second compound 10 µM, first compound 0.316 µM) was 14.5%. For the same compound, the viability, T/C (second compound 10 µM, first compound 1 µM) was 18.8%, the viability, T/C (second compound 10 µM, first compound 3.16 µM) was 22.8% and the viability, T/C (second compound 10 µM, first compound 10 µM) was 28.4%.
`Cc1cccc(N(C)C(=O)C2C(O)CCN2c2nc(C)cc(C(F)(F)F)c2C#N)c1` (centres undefined) was tested, and the viability, T/C (compound 0.0316 µM) was 121% and 97.5% and 105%, the viability, T/C (compound 0.1 µM) was 83% and 85.8% and 99.7% and the viability, T/C (compound 0.316 µM) was 103% and 89.3% and 99.5%. The viability, T/C (compound 1 µM) was 89.3% and 97.7% and 105%, the viability, T/C (compound 3.16 µM) was 98.2% and 99.2% and 94.4% and the viability, T/C (compound 10 µM) was 80.9% and 80.7% and 90.8%. The IC50 (curve of compound) was greater than 10000 nM.
